Results from PubChem BioAssay (NCI).
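GI50: concentration for 50% inhibition of growth. At the TGI there is no net growth.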

How the values were obtained:
Assay in all cases: growth of human tumour cells (NCI), 384-well format; in the data active = GI50 below about 0.43 µM; inactive = the rest
SF-268 CNS = system: SF-268 CNS
M14 melanoma = system: M14 melanoma
HOP-92 NSCLC = system: HOP-92 NSCLC
UACC-62 melanoma = system: UACC-62 melanoma
RXF 393 renal = system: RXF 393 renal
HS 578T breast = system: HS 578T breast
BT-549 breast = system: BT-549 breast
EKVX NSCLC = system: EKVX NSCLC
PC-3 prostate = system: PC-3 prostate
SF-295 CNS = system: SF-295 CNS
MDA-MB-231 breast = system: MDA-MB-231 breast
IGROV1 ovarian = system: IGROV1 ovarian
HCT-116 colon = system: HCT-116 colon
A549 NSCLC = system: A549 NSCLC
SNB-75 CNS = system: SNB-75 CNS
ACHN renal = system: ACHN renal
SR leukemia = system: SR leukemia
SK-MEL-5 melanoma = system: SK-MEL-5 melanoma
MALME-3M melanoma = system: MALME-3M melanoma
COLO 205 colon = system: COLO 205 colon
NCI-H522 lung = system: NCI-H522 lung
SN12C renal = system: SN12C renal
HCC-2998 colon = system: HCC-2998 colon
SNB-19 CNS = system: SNB-19 CNS
KM12 colon = system: KM12 colon
OVCAR-5 ovarian = system: OVCAR-5 ovarian
NCI-H460 NSCLC = system: NCI-H460 NSCLC
DU-145 prostate = system: DU-145 prostate
HL-60(TB) leukemia = system: HL-60(TB) leukemia
HOP-62 NSCLC = system: HOP-62 NSCLC
UACC-257 melanoma = system: UACC-257 melanoma
MDA-MB-468 breast = system: MDA-MB-468 breast
OVCAR-3 ovarian = system: OVCAR-3 ovarian
MDA-MB-435 melanoma = system: MDA-MB-435 melanoma
RPMI-8226 leukemia = system: RPMI-8226 leukemia
U251 glioblastoma = system: U251 glioblastoma
SK-MEL-28 melanoma = system: SK-MEL-28 melanoma
SK-OV-3 ovarian = system: SK-OV-3 ovarian
HCT-15 colon = system: HCT-15 colon
CAKI-1 renal = system: CAKI-1 renal
LOX IMVI melanoma = system: LOX IMVI melanoma
OVCAR-8 ovarian = system: OVCAR-8 ovarian
NCI/ADR-RES ovarian = system: NCI/ADR-RES ovarian
T-47D breast = system: T-47D breast
NCI-H322M lung = system: NCI-H322M lung
MOLT-4 leukemia = system: MOLT-4 leukemia
OVCAR-4 ovarian = system: OVCAR-4 ovarian
NCI-H226 lung = system: NCI-H226 lung
TK-10 renal = system: TK-10 renal
HT29 colon = system: HT29 colon
A498 renal = system: A498 renal
NCI-H23 lung = system: NCI-H23 lung
SF-539 CNS = system: SF-539 CNS
MCF7 breast = system: MCF7 breast
SK-MEL-2 melanoma = system: SK-MEL-2 melanoma
CCRF-CEM leukemia = system: CCRF-CEM leukemia
786-0 renal = system: 786-0 renal
SW-620 colon = system: SW-620 colon

CNC(=O)c1cc(COc2nnc(Nc3ccc(Cl)cc3)c3ccoc23)ccn1
16.6 µM: TGI (OVCAR-4 ovarian)
8.04 µM: TGI (SF-268 CNS)
26 µM: TGI (SNB-19 CNS)
25.5 µM: TGI (PC-3 prostate) | TGI (ACHN renal)
40.2 µM: TGI (OVCAR-5 ovarian)
21.9 µM: TGI (BT-549 breast) | TGI (U251 glioblastoma)
11 µM: TGI (SNB-75 CNS)
14.2 µM: TGI (HOP-92 NSCLC)
17 µM: TGI (NCI-H522 lung)
5.67 µM: TGI (HT29 colon)
5.19 µM: TGI (NCI-H23 lung)
26.7 µM: TGI (IGROV1 ovarian)
27.9 µM: TGI (OVCAR-3 ovarian)
46.9 µM: TGI (T-47D breast)
25.2 µM: TGI (DU-145 prostate)
4.86 µM: TGI (MDA-MB-468 breast)
inactive: GI50 (SF-268 CNS) 3.03 µM | GI50 (M14 melanoma) 19.3 µM | GI50 (HOP-92 NSCLC) 4.23 µM | GI50 (UACC-62 melanoma) 3.51 µM | GI50 (RXF 393 renal) 2.84 µM | GI50 (HS 578T breast) 2.73 µM | GI50 (BT-549 breast) 9.44 µM | GI50 (EKVX NSCLC) 13.6 µM | GI50 (PC-3 prostate) 11.3 µM | GI50 (SF-295 CNS) 2.4 µM | GI50 (MDA-MB-231 breast) 4.69 µM | GI50 (IGROV1 ovarian) 12.2 µM | GI50 (HCT-116 colon) 4.08 µM | GI50 (A549 NSCLC) 5.43 µM | GI50 (SNB-75 CNS) 3.09 µM | GI50 (ACHN renal) 11.1 µM | GI50 (SR leukemia) 2.5 µM | GI50 (SK-MEL-5 melanoma) 8.37 µM | GI50 (MALME-3M melanoma) 5.69 µM | GI50 (COLO 205 colon) 20 µM | GI50 (NCI-H522 lung) 5.23 µM | GI50 (SN12C renal) 12.9 µM | GI50 (HCC-2998 colon) 11.1 µM | GI50 (SNB-19 CNS) 13.1 µM | GI50 (KM12 colon) 3.29 µM | GI50 (OVCAR-5 ovarian) 21.9 µM | GI50 (NCI-H460 NSCLC) 8.81 µM | GI50 (DU-145 prostate) 12.4 µM | GI50 (HL-60(TB) leukemia) > 100 µM | GI50 (HOP-62 NSCLC) 4.89 µM | GI50 (UACC-257 melanoma) 7.95 µM | GI50 (MDA-MB-468 breast) 2.29 µM | GI50 (OVCAR-3 ovarian) 14.3 µM | GI50 (MDA-MB-435 melanoma) 19.1 µM | GI50 (RPMI-8226 leukemia) 14.1 µM | GI50 (U251 glioblastoma) 10.2 µM | GI50 (SK-MEL-28 melanoma) 5.17 µM | GI50 (SK-OV-3 ovarian) 2.8 µM | GI50 (HCT-15 colon) 11.8 µM | GI50 (CAKI-1 renal) 3.38 µM | GI50 (LOX IMVI melanoma) 18.6 µM | GI50 (OVCAR-8 ovarian) 1.96 µM | GI50 (NCI/ADR-RES ovarian) 8.44 µM | GI50 (T-47D breast) 15.4 µM | GI50 (NCI-H322M lung) 11.9 µM | GI50 (MOLT-4 leukemia) 34.8 µM | GI50 (OVCAR-4 ovarian) 5.31 µM | GI50 (NCI-H226 lung) 15.2 µM | GI50 (TK-10 renal) 10.3 µM | GI50 (HT29 colon) 2.4 µM | GI50 (A498 renal) 9.38 µM | GI50 (NCI-H23 lung) 2.45 µM | GI50 (SF-539 CNS) 1.49 µM | GI50 (MCF7 breast) 4.71 µM
29.5 µM: TGI (NCI-H226 lung)
3.68 µM: TGI (OVCAR-8 ovarian)
3.07 µM: TGI (SF-539 CNS)
20.8 µM: TGI (UACC-257 melanoma) | TGI (NCI/ADR-RES ovarian)
37.5 µM: TGI (MDA-MB-435 melanoma)
21 µM: TGI (NCI-H460 NSCLC)
9.01 µM: TGI (SK-OV-3 ovarian)
11.7 µM: TGI (CAKI-1 renal)
14.9 µM: TGI (HCT-116 colon)
15.5 µM: TGI (HOP-62 NSCLC)
38.6 µM: TGI (M14 melanoma)
30 µM: TGI (HCC-2998 colon)
8.62 µM: TGI (RXF 393 renal)
27.3 µM: TGI (HCT-15 colon)
18.3 µM: TGI (MDA-MB-231 breast)
8.17 µM: TGI (HS 578T breast)
> 100 µM: TGI (HL-60(TB) leukemia) | TGI (MOLT-4 leukemia)
22.3 µM: TGI (TK-10 renal)
8.84 µM: TGI (KM12 colon)
39.9 µM: TGI (RPMI-8226 leukemia)
26.8 µM: TGI (EKVX NSCLC)
4.87 µM: TGI (SR leukemia)
5.78 µM: TGI (SF-295 CNS)
18 µM: TGI (MALME-3M melanoma)
17.6 µM: TGI (SK-MEL-28 melanoma) | TGI (MCF7 breast)
37.2 µM: TGI (COLO 205 colon)
25.1 µM: TGI (NCI-H322M lung)
19.1 µM: TGI (A549 NSCLC)
12.2 µM: TGI (UACC-62 melanoma)
43.8 µM: TGI (LOX IMVI melanoma)
21.3 µM: TGI (A498 renal)
20.7 µM: TGI (SK-MEL-5 melanoma)
31.7 µM: TGI (SN12C renal)

CN1CCc2cc3c(cc2C1O)OCO3 (stereo not given)
> 100 µM: TGI (SF-268 CNS) | TGI (M14 melanoma) | TGI (HOP-92 NSCLC) | TGI (UACC-62 melanoma) | TGI (RXF 393 renal) | TGI (HS 578T breast) | TGI (BT-549 breast) | TGI (EKVX NSCLC) | TGI (PC-3 prostate) | TGI (SF-295 CNS) | TGI (MDA-MB-231 breast) | TGI (IGROV1 ovarian) | TGI (SK-MEL-2 melanoma) | TGI (A549 NSCLC) | TGI (SNB-75 CNS) | TGI (CCRF-CEM leukemia) | TGI (ACHN renal) | TGI (SR leukemia) | TGI (786-0 renal) | TGI (SK-MEL-5 melanoma) | TGI (MALME-3M melanoma) | TGI (COLO 205 colon) | TGI (NCI-H522 lung) | TGI (SN12C renal) | TGI (HCC-2998 colon) | TGI (SNB-19 CNS) | TGI (KM12 colon) | TGI (OVCAR-5 ovarian) | TGI (NCI-H460 NSCLC) | TGI (DU-145 prostate) | TGI (HL-60(TB) leukemia) | TGI (HOP-62 NSCLC) | TGI (UACC-257 melanoma) | TGI (MDA-MB-468 breast) | TGI (OVCAR-3 ovarian) | TGI (MDA-MB-435 melanoma) | TGI (RPMI-8226 leukemia) | TGI (U251 glioblastoma) | TGI (SK-MEL-28 melanoma) | TGI (SK-OV-3 ovarian) | TGI (HCT-15 colon) | TGI (CAKI-1 renal) | TGI (OVCAR-8 ovarian) | TGI (SW-620 colon) | TGI (NCI/ADR-RES ovarian) | TGI (T-47D breast) | TGI (NCI-H322M lung) | TGI (MOLT-4 leukemia) | TGI (OVCAR-4 ovarian) | TGI (NCI-H226 lung) | TGI (TK-10 renal) | TGI (HT29 colon) | TGI (A498 renal) | TGI (NCI-H23 lung) | TGI (SF-539 CNS) | TGI (MCF7 breast)
inactive: GI50 (SF-268 CNS) > 100 µM | GI50 (M14 melanoma) > 100 µM | GI50 (HOP-92 NSCLC) > 100 µM | GI50 (UACC-62 melanoma) > 100 µM | GI50 (RXF 393 renal) > 100 µM | GI50 (HS 578T breast) > 100 µM | GI50 (BT-549 breast) > 100 µM | GI50 (EKVX NSCLC) > 100 µM | GI50 (PC-3 prostate) > 100 µM | GI50 (SF-295 CNS) > 100 µM | GI50 (MDA-MB-231 breast) > 100 µM | GI50 (IGROV1 ovarian) > 100 µM | GI50 (SK-MEL-2 melanoma) > 100 µM | GI50 (A549 NSCLC) > 100 µM | GI50 (SNB-75 CNS) > 100 µM | GI50 (CCRF-CEM leukemia) > 100 µM | GI50 (ACHN renal) > 100 µM | GI50 (SR leukemia) > 100 µM | GI50 (786-0 renal) > 100 µM | GI50 (SK-MEL-5 melanoma) > 100 µM | GI50 (MALME-3M melanoma) > 100 µM | GI50 (COLO 205 colon) > 100 µM | GI50 (NCI-H522 lung) > 100 µM | GI50 (SN12C renal) > 100 µM | GI50 (HCC-2998 colon) > 100 µM | GI50 (SNB-19 CNS) > 100 µM | GI50 (KM12 colon) > 100 µM | GI50 (OVCAR-5 ovarian) > 100 µM | GI50 (NCI-H460 NSCLC) > 100 µM | GI50 (DU-145 prostate) > 100 µM | GI50 (HL-60(TB) leukemia) > 100 µM | GI50 (HOP-62 NSCLC) > 100 µM | GI50 (UACC-257 melanoma) > 100 µM | GI50 (MDA-MB-468 breast) > 100 µM | GI50 (OVCAR-3 ovarian) > 100 µM | GI50 (MDA-MB-435 melanoma) > 100 µM | GI50 (RPMI-8226 leukemia) > 100 µM | GI50 (U251 glioblastoma) > 100 µM | GI50 (SK-MEL-28 melanoma) > 100 µM | GI50 (SK-OV-3 ovarian) > 100 µM | GI50 (HCT-15 colon) > 100 µM | GI50 (CAKI-1 renal) > 100 µM | GI50 (OVCAR-8 ovarian) > 100 µM | GI50 (SW-620 colon) > 100 µM | GI50 (NCI/ADR-RES ovarian) > 100 µM | GI50 (T-47D breast) > 100 µM | GI50 (NCI-H322M lung) > 100 µM | GI50 (MOLT-4 leukemia) > 100 µM | GI50 (OVCAR-4 ovarian) > 100 µM | GI50 (NCI-H226 lung) > 100 µM | GI50 (TK-10 renal) > 100 µM | GI50 (HT29 colon) > 100 µM | GI50 (A498 renal) > 100 µM | GI50 (NCI-H23 lung) > 100 µM | GI50 (SF-539 CNS) > 100 µM | GI50 (MCF7 breast) > 100 µM
